Experiments:
Human PARP-1 enzyme = target: T1, Human PARP-1 enzyme (Homo sapiens, UniProt P09874); assay: In vitro Scintillation Proximity Assay (SPA) for PARP-1 inhibitory activity; type: biochemical; conditions: read-out: in vitro SPA assay PARP-1 pIC50 (converted)
T1 construct: purchased Trevigen
Summary of the method: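 SPA assay: nicked-DNA-activated PARP-1 (0.1–0.2 μg/ml) ADP-ribosylates biotinylated histones (2 μg/ml) using [3H]-NAD+, 20 min at RT in Tris pH 8/DTT/MgCl2, stopped with 2 mM NAD+. Blank-subtracted cpm expressed as % control; IC50 by linear interpolation, reported as pIC50 (10−5 to 3×10−9 M tested).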

PC-3 cells = assay: Antiproliferative activity, Alamar Blue assay, PC-3 cells; type: cell-based, human; conditions: for IC50: Homo sapiens, PC-3, PC3 cells, read-out: PC3 antiproliferative activity pIC50 (converted); for PC3 antiproliferative activity pIC50: PC3 cells
Summary of the method: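 PC-3 cells seeded at 4.5×10^3 cells/ml, left to adhere 24 hr, then exposed to compound for 4 days. Resazurin (Alamar Blue) added for a further 24 hrs at 37° C; fluorescence read at 540/590 nm. Viability as % of untreated control, mean of 3 wells; IC50 by probit analysis, reported as pIC50.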

T1 sequence (P09874 whole entry): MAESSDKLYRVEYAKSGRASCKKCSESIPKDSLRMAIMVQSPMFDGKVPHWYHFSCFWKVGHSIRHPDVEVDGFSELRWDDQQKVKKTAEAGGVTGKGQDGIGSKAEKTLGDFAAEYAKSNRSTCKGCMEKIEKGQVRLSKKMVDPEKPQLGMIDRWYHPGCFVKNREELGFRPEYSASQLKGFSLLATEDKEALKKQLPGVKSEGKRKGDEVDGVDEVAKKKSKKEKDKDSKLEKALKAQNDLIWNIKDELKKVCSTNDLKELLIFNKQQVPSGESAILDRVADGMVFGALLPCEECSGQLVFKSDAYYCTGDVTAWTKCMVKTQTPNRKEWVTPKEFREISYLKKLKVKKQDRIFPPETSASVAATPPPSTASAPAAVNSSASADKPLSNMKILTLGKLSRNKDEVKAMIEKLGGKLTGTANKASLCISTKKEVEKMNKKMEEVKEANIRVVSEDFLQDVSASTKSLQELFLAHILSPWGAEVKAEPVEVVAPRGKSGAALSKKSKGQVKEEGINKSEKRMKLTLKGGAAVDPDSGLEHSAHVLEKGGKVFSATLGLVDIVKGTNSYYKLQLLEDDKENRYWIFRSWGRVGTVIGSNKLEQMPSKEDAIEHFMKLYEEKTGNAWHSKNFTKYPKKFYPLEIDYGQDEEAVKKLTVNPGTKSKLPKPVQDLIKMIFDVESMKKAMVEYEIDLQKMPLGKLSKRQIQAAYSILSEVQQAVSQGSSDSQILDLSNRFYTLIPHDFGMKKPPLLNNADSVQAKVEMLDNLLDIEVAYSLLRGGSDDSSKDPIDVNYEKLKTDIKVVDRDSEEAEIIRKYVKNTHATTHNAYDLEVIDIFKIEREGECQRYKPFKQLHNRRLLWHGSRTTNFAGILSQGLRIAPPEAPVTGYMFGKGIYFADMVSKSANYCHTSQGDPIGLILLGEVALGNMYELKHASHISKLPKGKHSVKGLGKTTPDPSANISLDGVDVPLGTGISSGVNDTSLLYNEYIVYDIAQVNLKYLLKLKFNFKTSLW

| IC50 (Human PARP-1 enzyme) [nM] | IC50 (PC-3 cells) [nM] | PC3 antiproliferative activity pIC50 (PC-3 cells) | Structure (SMILES) |
| --- | --- | --- | --- |
| 631 | 1260 |  | COc1cc2ccc(C(C)(C#N)Cc3cccc(C#N)n3)cc2[nH]c1=O (centres unmarked) [Compound 218] |
| 100 | 631 |  | Cc1cc2ccc(C(C)(C#N)Cc3cccc(C#N)n3)cc2[nH]c1=O (centres unmarked) [Compound 227] |
| 200 | 10000 |  | Cc1cc2ccc([C@@](C)(C#N)[C@@H]3CCc4cc(Br)ccc43)cc2[nH]c1=O [Compound 240] |
| 200 | 794 |  | Cc1cc2ccc([C@@](C)(C#N)[C@H]3CCc4cc(Br)ccc43)cc2[nH]c1=O [Compound 241] |
| 158 | 79.4 |  | Cc1cc2ccc([C@](C)(C#N)[C@@H]3CCc4cc(Br)ccc43)cc2[nH]c1=O [Compound 242] |
| 200 |  | 6.6 | Cc1cc2ccc(C(C)(C#N)C3CCc4cc(Br)ccc43)cc2[nH]c1=O (centres unmarked) [Compound 244] |
| 79.4 | 794 |  | Cc1cc2ccc(C(C)(C#N)C3CCc4c(Br)cccc43)cc2[nH]c1=O (centres unmarked) [Compound 248] |
| 126 | 251 |  | Cc1cc2ccc(C(C)(C#N)C3CCc4ccc(Br)cc43)cc2[nH]c1=O (centres unmarked) [Compound 249] |
| 100 | 316 |  | Cc1cc2ccc(C(C)(C#N)C3CCc4ccc(C#N)cc43)cc2[nH]c1=O (centres unmarked) [Compound 250] |
| 31.6 | 794 |  | C=C(C)c1cccc(CC(C)(C#N)c2ccc3cc(CC)c(=O)[nH]c3c2)c1 (centres unmarked) [Compound 254] |
| 126 | 5010 |  | Cc1cc2ccc(C(C)(C#N)CCCCOc3ccccc3)cc2[nH]c1=O (centres unmarked) [Compound 272] |
| 100 | 1000 |  | Cc1cc2ccc(C(C)(C#N)Cc3cc(F)cc(F)c3)cc2[nH]c1=O (centres unmarked) [Compound 282] |
| 31.6 | 200 |  | CCc1cc2ccc(C(C)(C#N)Cc3cc(C)cc(Br)c3)cc2[nH]c1=O (centres unmarked) [Compound 284] |
| 100 | 398 |  | Cc1cc2ccc(C(C)(C#N)Cc3cccc(Oc4ccccn4)c3)cc2[nH]c1=O (centres unmarked) [Compound 304] |
| 31.6 | 1580 |  | CCc1cc2ccc(C(C)(C#N)Cc3cccc(F)n3)cc2[nH]c1=O (centres unmarked) [Compound 331] |
| 501 | 10000 |  | Cc1cc2ccc([C@@](C)(C#N)[C@@H]3CCCc4ccccc43)cc2[nH]c1=O [Compound 382] |
| 126 | 10000 |  | CCc1cc2ccc([C@](C)(C#N)C[C@H]3Cc4ccccc4O3)cc2[nH]c1=O [Compound 397] |
| 501 | 316 |  | CCc1cc2ccc(C(C#N)(CC)C3CCc4ccc(OC)cc43)cc2[nH]c1=O (centres unmarked) [Compound 403] |
| 316 | 79.4 |  | Cc1cc2ccc([C@@](C)(C#N)[C@H]3CCc4ccc(Br)cc43)cc2[nH]c1=O [Compound 405] |
| 158 | 10000 |  | Cc1cc2ccc([C@](C)(C#N)[C@@H]3CCc4ccc(Br)cc43)cc2[nH]c1=O [Compound 406] |
| 631 | 1260 |  | Cc1cc2ccc([C@](C)(C#N)[C@H]3CCc4ccc(Br)cc43)cc2[nH]c1=O [Compound 407] |

The remaining lines, values behind:

| Structure (SMILES) | IC50 (Human PARP-1 enzyme) [nM] | IC50 (PC-3 cells) [nM] | PC3 antiproliferative activity pIC50 (PC-3 cells) |
| --- | --- | --- | --- |
| CCc1cc2ccc(C(C)(C#N)Cc3ccc(Cl)nc3Cl)cc2[nH]c1=O (centres unmarked) [Compound 212] | 20 | 5010 |  |
| CCc1cnc(OCCC(C)(C#N)c2ccc3cc(CC)c(=O)[nH]c3c2)nc1 (centres unmarked) [Compound 222] | 50.1 | 3980 |  |
| CCc1cc2ccc(C(C)(C#N)CCOc3nccc(OC)n3)cc2[nH]c1=O (centres unmarked) [Compound 223] | 50.1 | 6310 |  |
| CCc1cc2ccc(C(C)(C#N)Cc3ccc(OC)nc3Cl)cc2[nH]c1=O (centres unmarked) [Compound 224] | 12.6 | 3160 |  |
| CCc1cc2ccc(C(C)(C#N)Cc3ccc(Cl)nc3OC)cc2[nH]c1=O (centres unmarked) [Compound 225] | 39.8 | 794 |  |
| CCc1cc2ccc(C(C)(C#N)Cc3cccc(N4CCCC4)n3)cc2[nH]c1=O (centres unmarked) [Compound 226] | 50.1 | 1580 |  |
| CCc1cc2ccc(C(C)(C#N)Cc3cc(OC)cc(OC)n3)cc2[nH]c1=O (centres unmarked) [Compound 232] | 25.1 | 251 |  |
| CCc1cc2ccc(C(C)(C#N)Cc3cc(C#N)cc4c3OCC4)cc2[nH]c1=O (centres unmarked) [Compound 236] | 20 | 501 |  |
| CCc1cc2ccc(C(C)(C#N)Cc3cc4ccccc4nn3)cc2[nH]c1=O (centres unmarked) [Compound 238] | 39.8 | 3980 |  |
| CCc1cc2ccc(C(C#N)(CC)Cc3cccc(C#N)c3)cc2[nH]c1=O (centres unmarked) [Compound 265] | 20 | 1000 |  |
| CCc1cc2ccc(C(C)(C#N)Cc3cc(F)cc(C#N)c3)cc2[nH]c1=O (centres unmarked) [Compound 266] | 50.1 | 398 |  |
| CCc1cc2ccc(C(C#N)(CC)Cc3cccc(F)c3)cc2[nH]c1=O (centres unmarked) [Compound 270] | 39.8 | 3160 |  |
| CCc1cc2ccc(C(C#N)(CC)Cc3cccc(OC)c3)cc2[nH]c1=O (centres unmarked) [Compound 287] | 39.8 | 1260 |  |
| CCc1cc2ccc(C(C)(C#N)CN(C)CCc3cn(C)c4ccccc34)cc2[nH]c1=O (centres unmarked) [Compound 303] | 63.1 | 3160 |  |
| CCOc1cc(N(C)C)nc(CC(C)(C#N)c2ccc3cc(CC)c(=O)[nH]c3c2)n1 (centres unmarked) [Compound 312] | 39.8 | 1000 |  |
| CCOc1cc(C#N)nc(CC(C)(C#N)c2ccc3cc(CC)c(=O)[nH]c3c2)n1 (centres unmarked) [Compound 315] | 63.1 | 1260 |  |
| CCc1cc2ccc(C(C#N)(CC)Cc3nc(C#N)cc(OC)n3)cc2[nH]c1=O (centres unmarked) [Compound 316] | 39.8 | 1260 |  |

| Structure (SMILES) | IC50 (Human PARP-1 enzyme) [nM] | IC50 (PC-3 cells) [nM] | PC3 antiproliferative activity pIC50 (PC-3 cells) |
| --- | --- | --- | --- |
| CCc1cc2ccc(C(C#N)(CC)Cc3nc(OC)cc(OC)n3)cc2[nH]c1=O (centres unmarked) [Compound 321] | 79.4 | 398 |  |
| CCc1cc2ccc(C(C)(C#N)Cc3ccnc(C#N)c3)cc2[nH]c1=O (centres unmarked) [Compound 324] | 39.8 | 10000 |  |
| CCc1cc2ccc(C(C)(C#N)Cc3cc(C)nc(Cl)c3)cc2[nH]c1=O (centres unmarked) [Compound 326] | 63.1 | 1000 |  |
| CCc1cc2ccc(C(C)(C#N)Cc3cc(C)nc(C#N)c3)cc2[nH]c1=O (centres unmarked) [Compound 328] | 63.1 | 1260 |  |
| CCc1cc2ccc(C(C)(C#N)Cc3ccnc(F)c3)cc2[nH]c1=O (centres unmarked) [Compound 330] | 39.8 | 10000 |  |
| CCc1cc2ccc([C@](C)(C#N)Cc3cc(F)cc(F)c3)cc2[nH]c1=O [Compound 333] | 31.6 | 10000 |  |
| CCc1cc2ccc(C(C)(C#N)Cc3ccc(C(F)(F)F)nc3C)cc2[nH]c1=O (centres unmarked) [Compound 340] | 100 | 3980 |  |
| CCc1cc2ccc(C(C)(C#N)Cc3ccnc(Cl)c3)cc2[nH]c1=O (centres unmarked) [Compound 341] | 63.1 | 6310 |  |
| CCc1cc2ccc(C(C#N)(CC)Cc3cccc(C#N)n3)cc2[nH]c1=O (centres unmarked) [Compound 342] | 79.4 | 1260 |  |
| CCc1cc2ccc(C(C)(C#N)CCOc3ccnc(SC)n3)cc2[nH]c1=O (centres unmarked) [Compound 348] | 79.4 | 7940 |  |
| CCc1cc2ccc(C(C)(C#N)CCOc3ncc(Br)cn3)cc2[nH]c1=O (centres unmarked) [Compound 349] | 63.1 | 1580 |  |
| CCc1cc2ccc(C(C)(C#N)Cc3nc(C)cc(OC)n3)cc2[nH]c1=O (centres unmarked) [Compound 371] | 100 | 398 |  |
| CCc1cc2ccc(C(C)(C#N)CN3CCN(c4ncc(Br)cn4)CC3)cc2[nH]c1=O (centres unmarked) [Compound 374] | 100 | 794 |  |
| CCc1cc2ccc(C(C)(C#N)CN3CCc4ccccc4C3)cc2[nH]c1=O (centres unmarked) [Compound 376] | 158 | 2510 |  |
| CCc1cc2ccc(C(C#N)(CC)Cc3cccc(CN)c3)cc2[nH]c1=O (centres unmarked) [Compound 390] | 63.1 | 2510 |  |
| CCc1cc2ccc(C(C)(C#N)CC3Oc4ccccc4O3)cc2[nH]c1=O (centres unmarked) [Compound 398] | 100 | 7940 |  |
| CCc1cc2ccc(C(C)(C#N)Cc3cc(F)cc(F)c3)cc2[nH]c1=O (centres unmarked) [Compound 402] | 50.1 |  | 6.4 |

Reference: patent US8778966B2, “Quinolinone derivatives as PARP and tank inhibitors” (Janssen Pharmaceutica, NV, priority 2007, dated 2014)
